From patent US20250388575A1, “HETEROBIFUNCTIONAL COMPOUNDS AND METHODS OF TREATING DISEASE” (Halda Therapeutics OpCo, Inc., priority 2022, published 2025)
Like-named read-outs stand apart in the source and are kept apart here.

Assays:
T47D cells = experiment: Cellular growth inhibition assay for T47D cells, CellTiter-Glo; type: cell-based, human; conditions: 72 hours treatment, CellTiter-Glo 2.0
Outline: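 Luminescence from CellTiter-Glo 2.0 after 72 h of compound exposure gives the viability signal. Cells grew in insulin-supplemented (0.2 units/mL) DMEM with 10% FBS and were treated one day after seeding at 0.5% DMSO. GI50 values come from four-parameter nonlinear regression.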

VCaP cells = experiment: Cellular growth inhibition assay for VCaP cells, CellTiter-Glo; type: cell-based, human; conditions: VCaP cells, 72 hours, CellTiter-Glo, read-out: GI50
Outline: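 GI50 values come from four-parameter curve fits of luminescence data normalized to a zero baseline. Compound, in medium with 0.5% DMSO, was added one day after plating and left for 72 h before CellTiter-Glo 2.0 addition.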

[1] = biological target: progesterone receptor ligand binding domain (LBD) (Homo sapiens (Human), UniProt P06401); experiment: FP assay for binding affinity to progesterone receptor (PolarScreen Progesterone Receptor Competitor Assay); conditions: GST-tagged PR LBD, Fluormone tracer, fluorescence polarization, 2 hours at room temperature
Sequence of progesterone receptor ligand binding domain (LBD) (P06401 679-913): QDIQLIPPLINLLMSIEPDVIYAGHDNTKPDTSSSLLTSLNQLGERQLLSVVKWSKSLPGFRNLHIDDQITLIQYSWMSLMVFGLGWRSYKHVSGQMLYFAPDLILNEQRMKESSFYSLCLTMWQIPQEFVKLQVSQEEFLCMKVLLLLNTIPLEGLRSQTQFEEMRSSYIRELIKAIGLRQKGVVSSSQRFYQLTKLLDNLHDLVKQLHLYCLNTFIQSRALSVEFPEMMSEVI
Protocol: Compounds were tested using the PolarScreen™ Progesterone Receptor Competitor Assay Kit (Life Technologies Cat #A15905 or a15906), as per the manufacturer's instructions. Briefly, GST-tagged PR LBD, Fluormone tracer, and compound were mixed and incubated for 2 hours at room temperature in the dark. Following incubation, the plates were spun at 3000×g for 30 seconds, then sealed with an optical adhesive cover, and fluorescence polarization was measured using appropriate excitation and emission filters with an EnVision Plate Reader (Perkin Elmer). Compound concentration vs. mP value were plotted in Prism (GraphPad). A four-parameter non-linear regression curve fit was applied to dose-response data to determine the half-maximal inhibitory concentration (IC50) for each test compound.

[2] = system: T-Rex 293 cell line SC3 cells having increased expression of androgen receptor protein; experiment: Cellular growth inhibition, T-Rex 293 SC3 cells with increased androgen receptor expression (doxycycline), CellTiter-Glo; type: cell-based; conditions: T-Rex 293 SC3 cells with increased androgen receptor expression (exposed to 10 ng/mL doxycycline), 72 hours, CellTiter-Glo; read-out: GI50
Outline: (§1)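 SC3, a T-Rex 293 clone with doxycycline-inducible wild-type androgen receptor, was seeded in phenol red-free DMEM with 10% charcoal-dextran FBS, with or without 10 ng/mL doxycycline. Compound added at 24 h (0.5% DMSO) for 72 h at 37° C. CellTiter-Glo 2.0 luminescence; GI50 from four-parameter fit.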

[3] = system: T-Rex 293 cell line SC3 cells lacking increased expression of androgen receptor protein; experiment: Cellular growth inhibition, T-Rex 293 SC3 cells lacking increased androgen receptor expression (no doxycycline), CellTiter-Glo; type: cell-based; conditions: T-Rex 293 SC3 cells lacking increased androgen receptor expression (not exposed to doxycycline), 72 hours, CellTiter-Glo; read-out: GI50
Outline: as §1

[4] = system: T-Rex 293 cell line SC cells having increased expression of progesterone receptor isoform B protein; experiment: Cellular growth inhibition, T-Rex 293 SC cells with increased progesterone receptor isoform B expression (doxycycline), CellTiter-Glo; type: cell-based; conditions: progesterone receptor isoform B induced with 10 ng/mL doxycycline, 72 hours
Protocol: (§2) The following types of cells were prepared for this experiment: (i) a T-Rex 293 cell line having increased expression of progesterone receptor isoform B protein due to exposure to doxycycline and (ii) a T-Rex 293 cell line lacking increased expression of progesterone receptor isoform B protein. Ability of the test compounds to inhibit proliferation of the foregoing cell types was evaluated according to the procedures set forth below.
(§3) The doxycycline-inducible progesterone receptor isoform B protein expressing cell line was established using the following protocol: T-Rex 293 cells were purchased from Invitrogen (Cat #R71007) and transfected using Lipofectamine 2000 with the wild-type progesterone receptor B protein sequence cloned into the pcDNA4/TO vector. Transfected cells were selected using 400 μg/mL Zeocin (Invitrogen Cat #R25001). Following selection, single clones were raised and maintained in Dulbecco's Modified Eagle Medium (DMEM) supplemented with 10% w/w Tetracycline-free fetal bovine serum (FBS) and 250 μg/mL Zeocin. Clones were analyzed for expression of progesterone receptor isoform B protein in the presence and absence of 10 ng/ml doxycycline (Sigma Cat #D9891), and a single doxycycline-inducible clone (hereinafter “SC”) was selected for use in downstream assays.
(§4) The SC cells were seeded on poly-D-lysine coated, black clear-bottom 384-well plates at 2500/well, in 25 μL Phenol Red Free Dulbecco's Modified Eagle Medium (DMEM) supplemented with 10% w/w charcoal-dextran treated fetal bovine serum (FBS) and 1% w/w pen-strep, with or without 10 ng/mL doxycycline. Pen-Strep is a commercially available mixture of penicillin G and streptomycin, which is used in mammalian cell culture media to prevent bacterial contamination. Phenol Red Free Dulbecco's Modified Eagle Medium (DMEM) supplemented with 10% w/w charcoal-dextran treated fetal bovine serum (FBS) and 1% w/w pen-strep, with or without 10 ng/mL doxycycline is herein referred to as Treatment Medium. Following seeding of cells in the plates, the plates were spun at 300×g for 30 seconds, then equilibrated to room temperature for 30 minutes, and then deposited in a humidified tissue culture incubator maintained at 37° C. with 5% CO2.
(§5) At 24 hours after seeding of the cells, dilutions of test compound were prepared in DMSO and dissolved in Treatment Medium, to achieve a final DMSO concentration of 0.5% w/w, thereby providing the Test Compound Solution. A 25 μL aliquot of the Test Compound Solution was added to cells in the well plates. An equal volume of a solution containing DMSO and Treatment Medium was used as a negative control. Following treatment of cells with Test Compound Solution or said equal volume of a solution containing DMSO and Treatment Medium, the plates were spun at 300×g for 30 seconds, and then left in an incubator for 72 hours.
(§6) At the end of the treatment duration, cell viability was quantified with CellTiter-Glo 2.0 reagent (Promega Cat #G9243). For this purpose, plates were equilibrated to room temperature for 30 minutes, and then 25 μL of CellTiter-Glo 2.0 reagent was added to cells in the plate wells. Plates were then agitated on a shaker for two minutes at 500 rpm and subsequently incubated at room temperature for 10 minutes. Following incubation, the plates were spun at 3000×g for 30 seconds, then sealed with an optical adhesive cover, and luminescence readings were measured with an EnVision Plate Reader (Perkin Elmer).
(§7) Data was normalized using zero luminescence for baseline. A four-parameter non-linear regression curve fit was applied to dose-response data in GraphPad Prism data analysis software to determine the half-maximal growth inhibitory concentration (GI50) for each test compound.

[5] = system: T-Rex 293 cell line SC cells lacking increased expression of progesterone receptor isoform B protein; experiment: Cellular growth inhibition, T-Rex 293 SC cells lacking increased progesterone receptor isoform B expression (no doxycycline), CellTiter-Glo; type: cell-based; conditions: T-Rex 293 SC cells not exposed to doxycycline, 72 hours
Protocol: as §2, §3, §4, §5, §6, §7

Row | Structure (SMILES) | GI50 (T47D cells; Homo sapiens) | GI50 (VCaP cells; Homo sapiens) | IC50 [1] | GI50 (T47D cells) | GI50 (VCaP cells) | GI50 [2] | GI50 [3] | GI50 [4] | GI50 [5]
1 | Cn1cc(-c2cc(S(=O)(=O)CCCCCN3CCN(c4ccc(C(=O)N[C@H]5CC[C@H](Oc6ccc(C#N)c(Cl)c6)CC5)nn4)CC3)ccc2Oc2ccc(F)cc2F)c2cc[nH]c2c1=O [I-94] | – | – | 50 to 500 nM | 500 to 1500 nM | < 500 nM | < 500 nM | > 3000 nM | – | –
2 | Cn1cc(-c2cc(C(C)(C)O)ccc2Oc2ccc(OCC3CCN(c4ccc(C(=O)N[C@H]5CC[C@H](Oc6ccc(C#N)c(Cl)c6)CC5)nn4)CC3)cc2)c2cc[nH]c2c1=O [I-96] | – | – | – | < 500 nM | < 500 nM | < 500 nM | < 500 nM | < 500 nM | < 500 nM
3 | CCS(=O)(=O)c1ccc(Oc2cccc(OCCN3CCN(c4ccc(C(=O)NC5CCC(Oc6ccc(C#N)c(Cl)c6)CC5)nn4)CC3)c2F)c(-c2cn(C)c(=O)c3[nH]ccc23)c1 (centres unmarked) [I-40, N-[4-(3-chloro-4-cyano-phenoxy)cyclohexyl]-6-[4-[2-[3-[4-ethylsulfonyl-2-(6-methyl-7-oxo-1H-pyrrolo[2,3-c]pyridin-4-yl)phenoxy]-2-fluoro-phenoxy]ethyl]piperazin-1-yl]pyridazine-3-carboxamide] | < 500 nM | < 500 nM | – | – | – | < 500 nM | < 500 nM | < 500 nM | < 500 nM
4 | Cn1cc(-c2cc(C(C)(C)O)ccc2Oc2ccc(CCOC3CCN(c4ccc(C(=O)N[C@H]5CC[C@H](Oc6ccc(C#N)c(Cl)c6)CC5)nn4)CC3)cc2)c2cc[nH]c2c1=O [I-103] | < 500 nM | < 500 nM | – | – | – | < 500 nM | < 500 nM | < 500 nM | < 500 nM
5 | CN(CCc1ccc(Oc2ccc(C(C)(C)O)cc2-c2cn(C)c(=O)c3[nH]ccc23)cc1)c1ccc(C(=O)NC2CCC(Oc3ccc(C#N)c(Cl)c3)CC2)nn1 (centres unmarked) [I-100, N-[4-(3-chloro-4-cyano-phenoxy)cyclohexyl]-6-[2-[4-[4-(1-hydroxy-1-methyl-ethyl)-2-(6-methyl-7-oxo-1H-pyrrolo[2,3-c]pyridin-4-yl)phenoxy]phenyl]ethyl-methyl-amino]pyridazine-3-carboxamide] | < 500 nM | < 500 nM | – | – | – | < 500 nM | < 500 nM | < 500 nM | < 500 nM
6 | CCS(=O)(=O)c1ccc(Oc2cccc(CCCCN3CC4(C3)CN(c3ccc(C(=O)N[C@H]5CC[C@H](Oc6ccc(C#N)c(Cl)c6)CC5)nn3)C4)c2F)c(-c2cn(C)c(=O)c3[nH]ccc23)c1 [I-47] | < 500 nM | < 500 nM | – | – | – | < 500 nM | < 500 nM | < 500 nM | < 500 nM
7 | CCS(=O)(=O)Nc1ccc(Oc2cccc(OCCOCCOCCOC3CCN(c4ccc(C(=O)N[C@H]5CC[C@H](Oc6ccc(C#N)c(Cl)c6)CC5)nn4)CC3)c2)c(-c2cn(C)c(=O)c3[nH]ccc23)c1 [I-2, N-[4-(3-chloro-4-cyano-phenoxy)cyclohexyl]-6-[4-[2-[2-[2-[3-[4-(ethylsulfonylamino)-2-(6-methyl-7-oxo-1H-pyrrolo[2,3-c]pyridin-4-yl)phenoxy]phenoxy]ethoxy]ethoxy]ethoxy]-1-piperidyl]pyridazine-3-carboxamide] | < 500 nM | < 500 nM | – | – | – | < 500 nM | 500 to 1500 nM | < 500 nM | < 500 nM
8 | CN(CCCOc1ccc(Oc2ccc(C(C)(C)O)cc2-c2cn(C)c(=O)c3[nH]ccc23)cc1)c1ccc(C(=O)N[C@H]2CC[C@H](Oc3ccc(C#N)c(Cl)c3)CC2)nn1 [I-99] | – | – | – | 500 to 1500 nM | < 500 nM | < 500 nM | < 500 nM | < 500 nM | 500 to 1500 nM

Continued, in another order:

Row | GI50 (T47D cells; Homo sapiens) | GI50 (VCaP cells; Homo sapiens) | IC50 [1] | GI50 (T47D cells) | GI50 (VCaP cells) | Structure (SMILES) | GI50 [2] | GI50 [3] | GI50 [4] | GI50 [5]
9 | 500 to 1500 nM | < 500 nM | 50 to 500 nM | – | – | Cn1cc(-c2cc(C(C)(C)O)ccc2Oc2ccc(OCC3CCN(c4ccc(C(=O)NC5CCC(Oc6ccc(C#N)c(Cl)c6)CC5)nn4)CC3)cc2)ccc1=O (centres unmarked) [I-235, N-[4-(3-chloro-4-cyano-phenoxy)cyclohexyl]-6-[4-[[4-[4-(1-hydroxy-1-methyl-ethyl)-2-(1-methyl-6-oxo-3-pyridyl)phenoxy]phenoxy]methyl]-1-piperidyl]pyridazine-3-carboxamide] | < 500 nM | > 3000 nM | – | –
10 | < 500 nM | < 500 nM | 50 to 500 nM | – | – | Cn1cc(-c2cc(C(C)(C)O)ccc2Oc2cc(F)c(CCOC3CCN(c4ccc(C(=O)N[C@H]5CC[C@H](Oc6ccc(C#N)c(Cl)c6)CC5)nn4)CC3)cc2F)c2cc[nH]c2c1=O [I-107] | < 500 nM | < 500 nM | – | –
11 | – | – | – | < 500 nM | < 500 nM | Cn1cc(-c2cc(C(C)(C)O)ccc2Oc2ccc(N3CC(C4CCN(c5ccc(C(=O)N[C@H]6CC[C@H](Oc7ccc(C#N)c(Cl)c7)CC6)nn5)CC4)C3)cc2)c2cc[nH]c2c1=O [I-148] | < 500 nM | > 3000 nM | < 500 nM | 500 to 1500 nM
12 | < 500 nM | < 500 nM | – | – | – | CN(c1ccc(Oc2ccc(C(C)(C)O)cc2-c2cn(C)c(=O)c3[nH]ccc23)cc1)C1CN(c2ccc(C(=O)N[C@H]3CC[C@H](Oc4ccc(C#N)c(Cl)c4)CC3)nn2)C1 [I-138] | < 500 nM | < 500 nM | < 500 nM | < 500 nM
13 | – | – | – | < 500 nM | < 500 nM | Cn1cc(-c2cc(C(C)(C)O)ccc2Oc2ccc(N3CCN(c4ccc(C(=O)N[C@H]5CC[C@H](Oc6ccc(C#N)c(Cl)c6)CC5)nn4)CC3)cc2)c2cc[nH]c2c1=O [I-139] | < 500 nM | < 500 nM | < 500 nM | < 500 nM
14 | – | – | 50 to 500 nM | 500 to 1500 nM | > 3000 nM | CC(C)N(C1CCN(c2ccc(C(=O)N[C@H]3CC[C@H](Oc4ccc(C#N)c(Cl)c4)CC3)nn2)CC1)C1CN(c2cccc(Oc3ccc(C(C)(C)O)cc3-c3cn(C)c(=O)c4[nH]ccc34)c2F)C1 [I-141] | < 500 nM | 500 to 1500 nM | – | –
